Source: patent US10000783B2, “Steviol glucosyltransferases and genes encoding the same” (SUNTORY HOLDINGS LIMITED, priority 2012, dated 2018)
Values belong to the molecule of their own block, whether it stands above or below them.

How the values were obtained:
UGT91D-like3 = test: Assay for enzyme activity of UGT91D-like3 on glycosyl acceptor substrates, LC-MS analysis; assay type: biochemical, stevia; details: for product formation on reaction of the glycosyl acceptor substrate with UGT91D-like3: 2 mM UDP-glucose, 0.1 mM glycosyl acceptor substrate, potassium phosphate buffer pH 7.0, 30° C., an hour, LC-MS
Protocol: (§1) Standard conditions for the enzyme reaction were as follows: A reaction solution (2 mM UDP-glucose, 0.1 mM glycosyl acceptor substrate, 100 mM potassium phosphate buffer (pH 7.0) and 25 μl of purified UGT91D-like3 enzyme solution) was prepared in distilled water to become 50 μl, and reacted at 30° C. for an hour. LC-MS analysis was performed for 5 μl of the enzyme reaction solution under the following conditions.
Column: Waters Sunfire C18 3.5 um […]
Moving phase: A: MilliQ Water (+0.05% formic acid), B: MeCN
Gradient: linear density gradient from 15% to 55% in B density (20 mins.)
Steviolmonoside (peak B) was prepared by reacting UGT85C2 and steviol (peak A), and the steviolmonoside was reacted with UGT91D-like3. […] This peak was identified as steviolbioside based on the retention time and mass fragmentation pattern. […] It was confirmed that UGT91D-like3 had the activity of forming steviolbioside (peak C) by glucosylation of steviolmonoside (peak B).

[1] = reported in the prior art (Non-Patent Document 2); cited from earlier work
[2] = Comparison in relative enzyme activity between recombinant UGT proteins, rubusoside as substrate; assay type: biochemical, stevia; details: for relative enzyme activity (amount of stevioside produced divided by amount of protein): glucosylation activity of UGT91D2e made 100%
Protocol: as §1
As given below, the Escherichia coli expression construct of UGT91D2e was prepared, and the enzyme activities of UGT91D2e and UGT91D-like3 were evaluated by the same manner as in EXAMPLES 3 and 4.
The enzyme activities were compared between the purified proteins of UGT91D-like3 and UGT91D2e expressed in Escherichia coli. Using rubusoside as substrate, the comparison was made under the same enzyme reaction conditions and analysis conditions as in EXAMPLE 4. A relative enzyme activity was calculated by dividing the amount of stevioside produced by the amount of the protein provided for the reaction.

Molecule: C=C1C[C@@]23CC[C@H]4[C@@](C)(CCC[C@@]4(C)C(=O)O)[C@@H]2CC[C@]1(O[C@@H]1O[C@H](CO)[C@@H](O)[C@H](O)[C@H]1O)C3 [steviolmonoside]
product formation on reaction of the glycosyl acceptor substrate with UGT91D-like3 (UGT91D-like3): a new product (peak C) was detected

Molecule: O=c1ccn([C@@H]2O[C@H](COP(=O)(O)OP(=O)(O)O[C@H]3OC[C@@H](O)[C@H](O)[C@H]3O)[C@@H](O)[C@H]2O)c(=O)[nH]1 [UDP-xylose]
use as sugar donor by UGT91D-like3 (UGT91D-like3): did not use UDP-xylose as the sugar donor

B1: UGT91D1: known stevia glucosyltransferase, GENBANK Accession No. AY345980 (protein, UniProt Q6VAA8 1-485, looked up)
UDP-glycosyltransferase 91D1: MYNVTYHQNSKAMATSDSIVDDRKQLHVATFPWLAFGHILPFLQLSKLIAEKGHKVSFLSTTRNIQRLSSHISPLINVVQLTLPRVQELPEDAEATTDVHPEDIQYLKKAVDGLQPEVTRFLEQHSPDWIIYDFTHYWLPSIAASLGISRAYFCVITPWTIAYLAPSSDAMINDSDGRTTVEDLTTPPKWFPFPTKVCWRKHDLARMEPYEAPGISDGYRMGMVFKGSDCLLFKCYHEFGTQWLPLLETLHQVPVVPVGLLPPEIPGDEKDETWVSIKKWLDGKQKGSVVYVALGSEALVSQTEVVELALGLELSGLPFVWAYRKPKGPAKSDSVELPDGFVERTRDRGLVWTSWAPQLRILSHESVCGFLTHCGSGSIVEGLMFGHPLIMLPIFCDQPLNARLLEDKQVGIEIPRNEEDGCLTKESVARSLRSVVVENEGEIYKANARALSKIYNDTKVEKEYVSQFVDYLEKNARAVAIDHES
activity for steviolmonoside [1]: no activity

B2: UGT91D2e: prior art glucosyltransferase (Patent Document 3), SEQ ID NO: 32, short by the 12 amino acids (protein, listed as Stevia rebaudiana)
chain: MATSDSIVDDRKQLHVATFPWLAFGHILPYLQLSKLIAEKGHKVSFLSTTRNIQRLSSHISPLINVVQLTLPRVQELPEDAEATTDVHPEDIPYLKKASDGLQPEVTRFLEQHSPDWIIYDYTHYWLPSIAASLGISRAHFSVTTPWAIAYMGPSADAMINGSDGRTTVEDLTTPPKWFPFPTKVCWRKHDLARLVPYKAPGISDGYRMGLVLKGSDCLLSKCYHEFGTQWLPLLETLHQVPVVPVGLLPPEIPGDEKDETWVSIKKWLDGKQKGSVVYVALGSEVLVSQTEVVELALGLELSGLPFVWAYRKPKGPAKSDSVELPDGFVERTRDRGLVWTSWAPQLRILSHESVCGFLTHCGSGSIVEGLMFGHPLIMLPIFGDQPLNARLLEDKQVGIEIPRNEEDGCLTKESVARSLRSVVVEKEGEIYKANARELSKIYNDTKVEKEYVSQFVDYLEKNARAVAIDHES
relative enzyme activity (amount of stevioside produced divided by amount of protein) [2]: 100%

B3: UGT91D-like3: novel stevia glucosyltransferase, amino acid sequence SEQ ID NO: 2 (protein, listed as Stevia rebaudiana)
chain: MYNVTYHQNSKAMATSDSIVDDRKQLHVATFPWLAFGHILPYLQLSKLIAEKGHKVSFLSTTRNIQRLSSHISPLINVVQLTLPRVQELPEDAEATTDVHPEDIPYLKKASDGLQPEVTRFLEQHSPDWIIYDYTHYWLPSIAASLGISRAHFSVTTPWAIAYMGPSADAMINGSDGRTTVEDLTTPPKWFPFPTKVCWRKHDLARLVPYKAPGISDGYRMGLVLKGSDCLLSKCYHEFGTQWLPLLETLHQVPVVPVGLLPPEIPGDEKDETWVSIKKWLDGKQKGSVVYVALGSEVLVSQTEVVELALGLELSGLPFVWAYRKPKGPAKSDSVELPDGFVERTRDRGLVWTSWAPQLRILSHESVCGFLTHCGSGSIVEGLMFGHPLIMLPIFGDQPLNARLLEDKQVGIEIPRNEEDGCLTKESVARSLRSVVVEKEGEIYKANARELSKIYNDTKVEKEYVSQFVDYLEKNARAVAIDHES
relative enzyme activity per protein amount higher than UGT91D2e [2]: 67%
relative enzyme activity (amount of stevioside produced divided by amount of protein) [2]: 167%

Continued, values first:

product formation on reaction of the glycosyl acceptor substrate with UGT91D-like3 (UGT91D-like3): any new product was not detected
Molecule: C=C1C[C@@]23CC[C@H]4[C@@](C)(CCC[C@@]4(C)C(=O)O)[C@@H]2CC[C@]1(O[C@@H]1O[C@H](CO)[C@@H](O)[C@H](O)[C@H]1O[C@@H]1O[C@H](CO)[C@@H](O)[C@H](O)[C@H]1O)C3 [steviolbioside]

product formation on reaction of the glycosyl acceptor substrate with UGT91D-like3 (UGT91D-like3): gave a new peak E
Molecule: C=C1C[C@@]23CC[C@H]4[C@@](C)(CCC[C@@]4(C)C(=O)O[C@@H]4O[C@H](CO)[C@@H](O)[C@H](O)[C@H]4O)[C@@H]2CC[C@]1(O[C@@H]1O[C@H](CO)[C@@H](O)[C@H](O)[C@H]1O)C3 [rubusoside]

product formation on reaction of the glycosyl acceptor substrate with UGT91D-like3 (UGT91D-like3): no product was detected
Molecule: C=C1C[C@@]23CC[C@H]4[C@@](C)(CCC[C@@]4(C)C(=O)O)[C@@H]2CC[C@]1(O)C3 [steviol]
